Assay results taken from publication PMC2788680 (Journal of medicinal chemistry, 2009).
Entries after “also recorded” stand apart in the source; their conditions may differ. Read-outs that look alike come from different tables or passages of the source. Numbered stars: 1 amine (or outer) side, 2 acyl side, 3 side chain; on linkers, the order of the positions; unused ones are H or OH. Bridge positions count the residues as written; N and C are the ends. Square brackets hold non-standard residues; d marks the D form. Peptide text beside a SMILES is read from it. 2Nal = N[C@@H](Cc1ccc2ccccc2c1)C(=O)O; CH2 = C([*:1])[*:2]

Experiments:
DOR [1] = target: T1, DOR (Rattus norvegicus, UniProt P33533); type: cell-based
T1 sequence (P33533 whole entry): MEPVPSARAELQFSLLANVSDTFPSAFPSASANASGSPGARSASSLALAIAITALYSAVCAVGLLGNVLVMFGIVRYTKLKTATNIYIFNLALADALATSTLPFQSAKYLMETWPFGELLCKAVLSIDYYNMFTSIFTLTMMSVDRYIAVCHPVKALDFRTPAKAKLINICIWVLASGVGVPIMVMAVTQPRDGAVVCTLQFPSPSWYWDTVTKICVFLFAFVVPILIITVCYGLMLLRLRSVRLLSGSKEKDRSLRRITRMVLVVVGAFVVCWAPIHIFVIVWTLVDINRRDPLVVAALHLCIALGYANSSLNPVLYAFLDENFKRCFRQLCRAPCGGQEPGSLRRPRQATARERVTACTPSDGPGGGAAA

MOR = MOR (Rattus norvegicus, UniProt P33535); test: [35S]GTPγS binding assay, C6-MOR membranes; type: biochemical; conditions: [35S]GTPγS assay
Sequence of MOR (P33535 whole entry): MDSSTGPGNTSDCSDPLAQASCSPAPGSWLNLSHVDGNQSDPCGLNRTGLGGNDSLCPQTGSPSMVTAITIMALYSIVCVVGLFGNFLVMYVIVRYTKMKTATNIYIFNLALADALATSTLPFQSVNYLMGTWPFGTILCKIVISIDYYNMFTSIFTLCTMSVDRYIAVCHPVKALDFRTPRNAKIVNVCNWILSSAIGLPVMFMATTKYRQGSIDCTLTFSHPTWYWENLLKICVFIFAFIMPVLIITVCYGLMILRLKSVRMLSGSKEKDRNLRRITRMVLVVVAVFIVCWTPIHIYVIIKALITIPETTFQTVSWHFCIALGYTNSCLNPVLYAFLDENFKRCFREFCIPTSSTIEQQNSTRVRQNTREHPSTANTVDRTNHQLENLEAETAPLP

KOR = KOR (Homo sapiens, UniProt P41145); test: [35S]GTPγS binding assay, CHO-KOR membranes; type: biochemical; conditions: [35S]GTPγS assay
Sequence of KOR (P41145 whole entry): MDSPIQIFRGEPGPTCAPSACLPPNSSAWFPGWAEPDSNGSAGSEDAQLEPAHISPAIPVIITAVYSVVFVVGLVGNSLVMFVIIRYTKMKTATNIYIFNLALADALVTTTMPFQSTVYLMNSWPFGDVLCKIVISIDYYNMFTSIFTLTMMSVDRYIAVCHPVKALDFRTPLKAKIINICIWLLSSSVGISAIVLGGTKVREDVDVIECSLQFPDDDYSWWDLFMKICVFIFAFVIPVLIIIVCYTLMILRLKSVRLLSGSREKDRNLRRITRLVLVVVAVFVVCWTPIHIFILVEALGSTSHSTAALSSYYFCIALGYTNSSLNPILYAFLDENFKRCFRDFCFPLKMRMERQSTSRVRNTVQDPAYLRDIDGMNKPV

DOR [2] = target: T1, DOR; test: [35S]GTPγS binding assay, C6-DOR membranes; type: biochemical; conditions: [35S]GTPγS assay
DOR [3] = target: T1, DOR; test: Antagonism of SNC80-stimulated [35S]GTPγS binding in C6-DOR; type: biochemical

Oc1ccc2c3c1O[C@H]1c4[nH]c5ccccc5c4C[C@@]4(O)[C@@H](C2)N(CC2CC2)CC[C@]314 [naltrindole]
activity in adenylyl cyclase inhibition assay (DOR [1]): without effect; also recorded: did not inhibit cAMP accumulation

C=CCN1C[C@H](C)N([C@H](c2ccc(C(=O)N(CC)CC)cc2)c2cccc(OC)c2)C[C@H]1C [SNC80, 4-[(R)-[(2S,5R)-4-allyl-2,5-dimethylpiperazin-1-yl](3-methoxyphenyl)methyl]-N,N-diethylbenzamide]
calculated maximal inhibition of adenylyl cyclase (DOR [1]): 76 ± 8.8%

NC(=O)[C@@H]1CSCSC[C@@H](NC(=O)[C@@H](N)Cc2ccc(O)cc2)C(=O)N[C@@H](Cc2ccccc2)C(=O)N[C@@H](Cc2ccc3ccccc3c2)C(=O)N1 [compound 9, Tyr-c(S-CH2-S)[D-Cys-Phe-2-Nal-Cys]NH2] (H-Y[dC]F[2Nal]C-NH2; linker 2-5 via CH2; N-terminus assumed)
activity in adenylyl cyclase inhibition assay (DOR [1]; C6-DOR cells): partial agonist
calculated maximal inhibition of adenylyl cyclase (DOR [1]; calculated maximum, 5 µM forskolin-stimulated, C6-DOR cells): 43 ± 9.0%
efficacy profile at MOR (MOR): full agonist
efficacy profile at KOR (KOR): full agonist
efficacy profile at DOR (DOR [2]): essentially as antagonists
Kb (DOR [3]): 48 ± 9.5 nM
